Test [1] concerns the target T1, 5-hydroxytryptamine receptor 2A (Homo sapiens, UniProt P28223). The experiment in a line: Agonist activity at human 5-HT2A receptor expressed in HEK293 cells assessed as increase in calcium mobilization by FLIPR assay. It counts as functional, cell-based. Background: Calcium assays in cells follow changes in intracellular calcium, usually with a dye or a luminescent sensor.

The target in test [2] is T1, 5-hydroxytryptamine receptor 2A. Put plainly: Displacement of [3H]Ketanserin from human recombinant 5-HT2A receptor expressed in HEK293T cells after 1 to […] by scintillation counting analysis. The class given is cell-based, HEK-293T. For orientation: In a radioligand displacement assay an active substance lowers the binding of a labelled ligand.
The target in test [3] is T2, Sodium-dependent noradrenaline transporter (Homo sapiens, UniProt P23975). Put plainly: Displacement of [3H]Nisoxetine from human recombinant norepinephrine transporter expressed in HEK293 cells after 1 to […] by scintillation counting analysis. It counts as cell-based.
T2 sequence (P23975 whole entry): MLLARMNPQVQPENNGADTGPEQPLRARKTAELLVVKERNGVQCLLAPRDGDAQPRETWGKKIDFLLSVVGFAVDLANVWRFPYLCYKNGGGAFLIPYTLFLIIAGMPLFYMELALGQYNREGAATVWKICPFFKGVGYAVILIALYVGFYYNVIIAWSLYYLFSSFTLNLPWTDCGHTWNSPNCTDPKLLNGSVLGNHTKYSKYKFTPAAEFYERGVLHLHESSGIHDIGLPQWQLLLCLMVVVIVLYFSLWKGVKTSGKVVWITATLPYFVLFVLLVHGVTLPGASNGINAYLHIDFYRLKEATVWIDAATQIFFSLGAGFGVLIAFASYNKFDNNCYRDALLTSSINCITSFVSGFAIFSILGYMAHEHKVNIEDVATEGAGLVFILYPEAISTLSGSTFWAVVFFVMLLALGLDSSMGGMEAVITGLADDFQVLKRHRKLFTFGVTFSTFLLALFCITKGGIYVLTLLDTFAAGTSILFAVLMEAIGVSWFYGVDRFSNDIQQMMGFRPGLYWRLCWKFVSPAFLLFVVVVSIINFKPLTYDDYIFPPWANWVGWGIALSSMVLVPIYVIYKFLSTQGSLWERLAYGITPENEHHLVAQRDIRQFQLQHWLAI
The nature of test [4]: Displacement of [3H]DTG from sigma 2 receptor in rat PC12 cells after 1 to […] by scintillation counting analysis. The class given is cell-based. The settings on record: pc-12.
The target of test [5] is 5-hydroxytryptamine receptor 1B (Homo sapiens, UniProt P28222). Put plainly: Displacement of [3H][…] from human recombinant 5-HT1B receptor expressed in HEK293 cells after 1 to […] by scintillation counting analysis. The class given is cell-based.
Sequence of 5-hydroxytryptamine receptor 1B (P28222 whole entry): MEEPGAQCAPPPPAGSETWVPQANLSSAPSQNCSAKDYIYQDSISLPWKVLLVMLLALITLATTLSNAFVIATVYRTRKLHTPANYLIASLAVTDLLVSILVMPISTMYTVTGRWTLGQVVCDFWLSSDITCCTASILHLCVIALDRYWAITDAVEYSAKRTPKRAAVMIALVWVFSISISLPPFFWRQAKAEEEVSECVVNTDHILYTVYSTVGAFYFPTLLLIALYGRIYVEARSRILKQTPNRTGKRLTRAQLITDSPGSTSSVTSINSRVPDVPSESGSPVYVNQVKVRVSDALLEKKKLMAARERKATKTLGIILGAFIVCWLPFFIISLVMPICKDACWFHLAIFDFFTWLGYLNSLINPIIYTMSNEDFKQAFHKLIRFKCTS
The target in test [6] is D(2) dopamine receptor (Homo sapiens, UniProt P14416). The experiment in a line: Displacement of [3H]N-methylspiperone from human recombinant dopamine D2 receptor expressed in HEK293 cells after 1 to […] by scintillation counting analysis. The class given is cell-based.
Sequence of D(2) dopamine receptor (P14416 whole entry): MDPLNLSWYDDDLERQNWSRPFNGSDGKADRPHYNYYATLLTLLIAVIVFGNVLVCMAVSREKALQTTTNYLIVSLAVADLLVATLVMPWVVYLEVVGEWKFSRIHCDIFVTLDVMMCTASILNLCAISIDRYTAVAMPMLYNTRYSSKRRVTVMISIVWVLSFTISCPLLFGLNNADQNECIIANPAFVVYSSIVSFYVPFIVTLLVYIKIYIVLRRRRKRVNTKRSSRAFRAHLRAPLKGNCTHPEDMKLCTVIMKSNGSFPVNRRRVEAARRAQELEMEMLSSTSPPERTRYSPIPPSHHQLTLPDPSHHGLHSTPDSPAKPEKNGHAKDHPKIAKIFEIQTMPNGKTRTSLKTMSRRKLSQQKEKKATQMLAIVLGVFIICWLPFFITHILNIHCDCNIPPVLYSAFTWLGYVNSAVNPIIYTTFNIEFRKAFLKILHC
In test [7] the target is Alpha-2C adrenergic receptor (Homo sapiens, UniProt P18825). Put plainly: Displacement of [3H]Clonidine from human recombinant adrenergic alpha2C receptor expressed in MDCK cells after 1 to […] by scintillation counting analysis. The class given is cell-based.
Sequence of Alpha-2C adrenergic receptor (P18825 whole entry): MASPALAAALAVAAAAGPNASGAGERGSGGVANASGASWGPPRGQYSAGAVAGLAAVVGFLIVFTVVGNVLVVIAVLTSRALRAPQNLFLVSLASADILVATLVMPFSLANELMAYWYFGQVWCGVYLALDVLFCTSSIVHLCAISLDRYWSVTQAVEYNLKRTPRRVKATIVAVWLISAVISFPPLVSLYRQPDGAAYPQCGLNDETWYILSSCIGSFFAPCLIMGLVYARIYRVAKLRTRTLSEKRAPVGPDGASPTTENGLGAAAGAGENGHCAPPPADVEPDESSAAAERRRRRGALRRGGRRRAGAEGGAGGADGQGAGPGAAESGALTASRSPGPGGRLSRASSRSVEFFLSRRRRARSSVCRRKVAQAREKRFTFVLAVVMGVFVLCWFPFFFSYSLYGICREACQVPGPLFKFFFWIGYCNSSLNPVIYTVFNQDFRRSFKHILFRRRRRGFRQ
For test [8], the target named is D(3) dopamine receptor (Homo sapiens, UniProt P35462). The experiment in a line: Displacement of [3H]N-methylspiperone from human recombinant dopamine D3 receptor expressed in HEK293 cells after 1 to […] by scintillation counting analysis. The class given is cell-based.
Sequence of D(3) dopamine receptor (P35462 whole entry): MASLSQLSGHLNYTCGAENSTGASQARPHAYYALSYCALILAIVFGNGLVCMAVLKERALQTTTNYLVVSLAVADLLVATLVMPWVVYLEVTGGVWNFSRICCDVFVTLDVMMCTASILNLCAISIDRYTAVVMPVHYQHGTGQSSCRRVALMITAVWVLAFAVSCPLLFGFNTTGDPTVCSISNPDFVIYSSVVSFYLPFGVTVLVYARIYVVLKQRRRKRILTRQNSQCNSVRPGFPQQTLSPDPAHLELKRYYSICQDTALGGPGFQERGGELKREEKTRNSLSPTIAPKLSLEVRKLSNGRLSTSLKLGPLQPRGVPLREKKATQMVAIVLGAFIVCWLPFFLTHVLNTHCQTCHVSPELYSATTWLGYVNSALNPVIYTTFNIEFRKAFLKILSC
Test [9] deals with Alpha-1B adrenergic receptor (Homo sapiens, UniProt P35368). Put plainly: Displacement of [3H]Prazosin from human recombinant adrenergic alpha1B receptor expressed in HEK293 cells after 1 to […] by scintillation counting analysis. The class given is cell-based.
Sequence of Alpha-1B adrenergic receptor (P35368 whole entry): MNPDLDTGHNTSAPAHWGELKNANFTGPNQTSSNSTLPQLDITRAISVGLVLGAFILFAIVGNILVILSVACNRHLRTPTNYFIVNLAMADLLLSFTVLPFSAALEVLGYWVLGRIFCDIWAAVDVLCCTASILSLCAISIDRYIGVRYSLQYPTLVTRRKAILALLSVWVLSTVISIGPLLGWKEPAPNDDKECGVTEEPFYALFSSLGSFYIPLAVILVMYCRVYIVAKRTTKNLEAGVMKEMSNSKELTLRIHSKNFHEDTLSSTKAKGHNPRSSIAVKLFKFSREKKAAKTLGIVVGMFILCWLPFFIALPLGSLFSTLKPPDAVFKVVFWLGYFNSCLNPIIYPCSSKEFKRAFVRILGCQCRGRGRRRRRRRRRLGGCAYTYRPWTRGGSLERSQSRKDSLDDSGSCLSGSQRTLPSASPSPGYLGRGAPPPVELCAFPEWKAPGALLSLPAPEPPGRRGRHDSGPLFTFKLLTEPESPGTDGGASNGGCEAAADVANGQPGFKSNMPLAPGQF
Test [10] deals with T2, Sodium-dependent noradrenaline transporter. The experiment in a line: Inhibition of [3H]norepinephrine uptake at human NET expressed in HEK293 cells preincubated for 10 mins prior to substrate addition measured after 4 mins by […]. It counts as cell-based.
Test [11] addresses Alpha-1A adrenergic receptor (Homo sapiens, UniProt P35348). The experiment in a line: Displacement of [3H]Prazosin from human recombinant adrenergic alpha1A receptor expressed in HEK293 cells after 1 to […] by scintillation counting analysis. It counts as cell-based.
In test [12] the target is Alpha-2B adrenergic receptor (Homo sapiens, UniProt P18089). The experiment in a line: Displacement of [3H]Clonidine from human recombinant adrenergic alpha2B receptor expressed in HEK293T cells after 1 to […] by scintillation counting analysis. It counts as cell-based, HEK-293T.
Sequence of Alpha-2B adrenergic receptor (P18089 whole entry): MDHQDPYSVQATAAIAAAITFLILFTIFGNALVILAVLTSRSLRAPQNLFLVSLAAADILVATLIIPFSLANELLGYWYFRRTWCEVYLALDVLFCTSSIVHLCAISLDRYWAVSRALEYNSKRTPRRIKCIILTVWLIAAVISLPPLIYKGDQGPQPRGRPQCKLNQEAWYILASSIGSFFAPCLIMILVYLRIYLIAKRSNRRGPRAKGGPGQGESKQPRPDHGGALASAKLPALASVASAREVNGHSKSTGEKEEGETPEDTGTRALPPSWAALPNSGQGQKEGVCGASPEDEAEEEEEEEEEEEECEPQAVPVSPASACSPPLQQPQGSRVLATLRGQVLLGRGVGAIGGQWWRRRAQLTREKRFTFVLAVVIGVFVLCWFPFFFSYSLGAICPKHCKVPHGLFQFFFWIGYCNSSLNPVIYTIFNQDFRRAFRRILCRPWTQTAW

Where only a bound is given, the exact number is not on record here.

Results on two compounds are retold here after ChEMBL document CHEMBL2390840, “An analysis of the synthetic tryptamines AMT and 5-MeO-DALT: emerging 'Novel Psychoactive Drugs'” (Bioorg Med Chem Lett, 2013).

A word on the Ki: it is a dissociation constant, usually derived from enzyme kinetics or from competition with a known ligand. What is called pKi is the negative decadic logarithm of the Ki, by convention in mol/L. What is called IC50 is the point on the concentration scale where inhibition reaches its midpoint. Read a high IC50 as a need for much substance.

T1 sequence (P28223 whole entry): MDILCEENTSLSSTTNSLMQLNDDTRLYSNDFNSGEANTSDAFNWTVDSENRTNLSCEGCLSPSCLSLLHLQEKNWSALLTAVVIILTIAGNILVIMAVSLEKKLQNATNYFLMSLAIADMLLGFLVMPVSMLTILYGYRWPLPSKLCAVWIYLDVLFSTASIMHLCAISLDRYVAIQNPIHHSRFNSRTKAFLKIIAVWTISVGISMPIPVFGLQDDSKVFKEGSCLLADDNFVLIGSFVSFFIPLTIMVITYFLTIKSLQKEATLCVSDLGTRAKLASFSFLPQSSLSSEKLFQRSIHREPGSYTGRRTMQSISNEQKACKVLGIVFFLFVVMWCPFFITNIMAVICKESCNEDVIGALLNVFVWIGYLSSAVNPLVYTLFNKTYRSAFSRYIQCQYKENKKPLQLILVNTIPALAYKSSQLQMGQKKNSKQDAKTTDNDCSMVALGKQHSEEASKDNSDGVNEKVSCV
Sequence of Alpha-1A adrenergic receptor (P35348 whole entry): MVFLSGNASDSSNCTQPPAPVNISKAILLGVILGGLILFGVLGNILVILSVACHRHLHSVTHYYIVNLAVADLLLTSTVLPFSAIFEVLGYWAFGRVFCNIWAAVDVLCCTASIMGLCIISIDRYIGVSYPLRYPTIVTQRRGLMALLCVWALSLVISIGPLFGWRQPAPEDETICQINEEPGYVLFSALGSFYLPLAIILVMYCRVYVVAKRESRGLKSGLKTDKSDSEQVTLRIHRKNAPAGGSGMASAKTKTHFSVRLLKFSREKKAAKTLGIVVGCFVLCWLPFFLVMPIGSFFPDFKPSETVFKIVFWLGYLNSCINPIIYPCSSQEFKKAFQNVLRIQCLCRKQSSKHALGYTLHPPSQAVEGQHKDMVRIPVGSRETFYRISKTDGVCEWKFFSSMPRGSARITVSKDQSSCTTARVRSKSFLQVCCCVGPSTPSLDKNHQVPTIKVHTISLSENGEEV

As to `C=CCN(CC=C)CCc1c[nH]c2ccc(OC)cc12`, the EC50 in [1] (read-out: EC50) was 2.8 nM; in test [1] (read-out: pEC50 (converted)), 27.5 nM. Moreover, the Ki in test [2] was 555 nM.

In the case of `CC(N)Cc1c[nH]c2ccccc12` (centres undefined), the Ki in test [3] was over 10000 nM; in [5] it was 559 nM; in [6] it was over 10000 nM; in test [7] it was over 10000 nM; in test [8], over 10000 nM; in [9], over 10000 nM. The values for the Ki in test [10], in [11] and in [12] were 642 nM, over 10000 nM and over 10000 nM, respectively. For the same compound, in test [4], the pKi is recorded as under 5. Moreover, 3720 nM corresponded to half-maximal inhibition in test [10] (IC50).
